Reference: patent publication US8106086B2, “Indoledione derivative” (MSD K.K., priority 2007, dated 2012)

Columns and labels:
human LCE = target: T1, human LCE (Homo sapiens, UniProt Q9H5J4); experiment: LCE enzyme activity inhibition test; type: biochemical; conditions: palmitoyl CoA and [14C]-malonyl CoA, 37° C. for 90 minutes
T1 sequence (Q9H5J4 1-265): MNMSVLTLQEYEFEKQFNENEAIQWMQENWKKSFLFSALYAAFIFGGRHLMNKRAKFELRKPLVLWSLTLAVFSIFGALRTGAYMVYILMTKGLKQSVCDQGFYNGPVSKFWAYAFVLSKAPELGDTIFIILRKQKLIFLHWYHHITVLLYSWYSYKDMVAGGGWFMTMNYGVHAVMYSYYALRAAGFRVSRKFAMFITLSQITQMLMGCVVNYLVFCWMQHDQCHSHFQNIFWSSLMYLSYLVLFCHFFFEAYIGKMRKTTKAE
Description: The LCE enzyme activity inhibition test was carried out according to a modification of the method of Moon et al., J. Biol. Chem., Vol. 276, pp. 45358 to 45366 (2001). Namely, 1.0 μl of the diluted test compound was added to each well of a 96-well assay plate (Corning, 96-Well Assay Block). Next, 50 μl of a phosphate buffer solution (100 mM potassium phosphate buffer solution, pH 6.5) and 25 μl of a substrate solution (in 100 mM potassium phosphate buffer solution (pH 6.5), 4.0 μM rotenone, 80 μM fatty acid-free bovine serum albumin, 160 μM palmitoyl CoA, 80 μM malonyl CoA, 3.5 μM [^14C]-malonyl CoA (1.92 GBq/mmol, manufactured by Amersham) were added to each well. Further, 25 μl of an enzyme solution (in 100 mM potassium phosphate buffer solution (pH 6.5), 100 μg/ml human LCE) was added thereto. Then, the upper side of the plate was sealed up, and the plate was incubated with gently stirring at 37° C. for 90 minutes. Subsequently, 100 μl of 5 N HCl was added to each well. The reaction was ceased by stirring the assay plate at room temperature for 5 minutes and acyl CoA was hydrolyzed. Subsequently, the enzyme reaction solution in each well was adsorbed by each well of a 96-well GF/C filter plate (Perkin Elmer Unifilter 96GF/C) through which water had been preliminarily passed. After washing each well with water to remove unabsorbed malonyl CoA, the GF/C filter plate was dried at 50° C. for 60 minutes. Next, 30 μl of a scintilator (Perkin Elmer, Microschinti 0) was added to each well and the upper side of the plate was sealed up. The radioactivity of the thus fixed [^14C] was measured with a microplate scintillation counter (Perkin Elmer, Topcount) and the obtained value was referred to as the enzyme activity. The human LCE enzyme inhibition activity of the test compound was calculated, based on the radioactivity of the well containing test compound-free DMSO as a control.

[1] = target: T2, intracellular LCE in H2.35 cells originating in mouse liver (Mus musculus, UniProt Q920L5); experiment: Intracellular LCE activity inhibition test; type: cell-based; conditions: [14C]-palmitoyl CoA, C18/C16 ratio by radio HPLC
T2 construct: endogenous in cells; host or cells: H2.35 mouse liver cells
T2 sequence (Q920L5 1-267): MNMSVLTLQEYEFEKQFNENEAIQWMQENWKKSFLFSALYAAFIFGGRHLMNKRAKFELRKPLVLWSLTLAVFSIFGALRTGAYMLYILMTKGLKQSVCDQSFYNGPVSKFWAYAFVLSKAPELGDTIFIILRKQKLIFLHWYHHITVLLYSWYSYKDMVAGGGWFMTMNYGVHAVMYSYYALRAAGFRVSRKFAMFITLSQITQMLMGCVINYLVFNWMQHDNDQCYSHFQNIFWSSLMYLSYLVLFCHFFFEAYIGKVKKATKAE
Description: Cultured H2.35 cells originating in mouse liver were maintained in DMEM (GIBCO) containing 4% calf serum and 200 nM dexamethasone and cultured at 33° C. in the presence of 5% CO2. About 2.5×10^5 H2.35 cells were pipetted into a 24-well cell culture plate (Corning, 24-Well Cell Culture Cluster) and cultured overnight at 33° C. in the presence of 5% CO2. […] After culturing for 1 hour at 33° C. in the presence of 5% CO2, [^14C]-palmitoyl CoA (2.13 GBq/mmol, manufactured by Perkin Elmer) was added to each well and culture was conducted for additional 4 hours at 33° C. in the presence of 5% CO2. Next, each well was washed with ice-cooled phosphate-buffered physiological saline and 250 μl of 2M sodium hydroxide was added to cease the reaction. Then, the reaction solution in each well was transferred into a glass test tube and incubated at 70° C. for 1 hour. After adding 100 μl of a 5N hydrogen chloride solution, fatty acids were extracted with petroleum ether. Then [^14C]-labeled fatty acids were quantified by radio HPLC and the ratio of the amount of fatty acids having carbon chains consisting of 18 carbon atoms to the amount of those having carbon chains consisting of 16 carbon atoms (C18/C16 ratio) was calculated. The intracellular LCE inhibition activity of the test compound was calculated, based on the C18/C16 ratio of the well containing test compound-free DMSO as a control.

[2] = activity of the optically resolved components of Production Example 1 (test not stated); conditions: fractions from optical resolution on CHIRALPAK AD-H

Row | Structure (SMILES) | IC50 (human LCE) [nM] | IC50 [1] [nM] | identified as being active [2]
1 | Cc1[nH]n(-c2ccc(S(C)(=O)=O)cc2)c(=O)c1C1(C(F)(F)F)C(=O)N(c2ccccc2)C2=C1C(=O)CC(C)(C)C2 (centres unmarked) [Production Example 44, 3-[2,5-dihydro-3-methyl-(4-methylsulfonylphenyl)-5-oxo-1H-pyrazol-4-yl]-3,5,6,7-tetrahydro-6,6-dimethyl-1-phenyl-3-trifluoromethyl-1H-indole-2,4-dione] | 8.9 | 7 | 
2 | Cc1[nH]n(-c2ccccc2)c(=O)c1C1(C(F)(F)F)C(=O)N(c2ccccc2)C2=C1C(=O)CC(C)(C)C2 (centres unmarked) [3-(2,5-dihydro-3-methyl-5-oxo-1-phenyl-1H-pyrazol-4-yl)-3,5,6,7-tetrahydro-6,6-dimethyl-1-phenyl-3-trifluoromethyl-1H-indole-2,4-dione] |  |  | active
3 | Cc1[nH]n(-c2ccc(OC(C)C)cc2)c(=O)c1C1(C(F)(F)F)C(=O)N(c2ccccc2)C2=C1C(=O)CC(C)(C)C2 (centres unmarked) [Production Example 40, 3-[2,5-dihydro-1-(4-isopropoxyphenyl)-3-methyl-5-oxo-1H-pyrazol-4-yl]-3,5,6,7-tetrahydro-6,6-dimethyl-1-phenyl-3-trifluoromethyl-1H-indole-2,4-dione] | 30 | 38 | 
4 | Cc1[nH]n(-c2ccc(-c3ccccc3)cc2)c(=O)c1C1(C(F)(F)F)C(=O)N(c2ccccc2)C2=C1C(=O)CC(C)(C)C2 (centres unmarked) [Production Example 42, 3-[2,5-dihydro-3-methyl-5-oxo-1-(biphenyl-4-yl)-1H-pyrazol-4-yl]-3,5,6,7-tetrahydro-6,6-dimethyl-1-phenyl-3-trifluoromethyl-1H-indole-2,4-dione] | 22 | 25 | 
5 | Cc1[nH]n(-c2ccc(C#N)cc2)c(=O)c1C1(C(F)(F)F)C(=O)N(c2ccccc2)C2=C1C(=O)CC(C)(C)C2 (centres unmarked) [Production Example 31, 3-[1-(4-cyanophenyl)-2,5-dihydro-3-methyl-5-oxo-1H-pyrazol-4-yl]-3,5,6,7-tetrahydro-6,6-dimethyl-1-phenyl-3-trifluoromethyl-1H-indole-2,4-dione] |  | 5.4 | 
6 | Cc1[nH]n(-c2ccc(C(C)(C)C)cc2)c(=O)c1C1(C(F)(F)F)C(=O)N(c2ccccc2)C2=C1C(=O)CC(C)(C)C2 (centres unmarked) [Production Example 35, 3-[1-(4-tert-butylphenyl)-2,5-dihydro-3-methyl-5-oxo-1H-pyrazol-4-yl]-3,5,6,7-tetrahydro-6,6-dimethyl-1-phenyl-3-trifluoromethyl-1H-indole-2,4-dione] | 15 | 4.2 | 

More lines, main results first:

Row | IC50 (human LCE) [nM] | IC50 [1] [nM] | Structure (SMILES) | identified as being active [2]
7 | 23 | 1.2 | Cc1[nH]n(-c2ccc(C(F)(F)F)cc2)c(=O)c1C1(C(F)(F)F)C(=O)N(c2ccccc2)C2=C1C(=O)CC(C)(C)C2 (centres unmarked) [Production Example 29, 3-[2,5-dihydro-3-methyl-5-oxo-1-(4-trifluoromethylphenyl)-1H-pyrazol-4-yl]-3,5,6,7-tetrahydro-6,6-dimethyl-1-phenyl-3-trifluoromethyl-1H-indole-2,4-dione] | 
8 |  | 0.6 | Cc1[nH]n(-c2ccc(OC(F)(F)F)cc2)c(=O)c1C1(C(F)(F)F)C(=O)N(c2ccccc2)C2=C1C(=O)CC(C)(C)C2 (centres unmarked) [Production Example 36, 3-[2,5-dihydro-3-methyl-5-oxo-1-(4-trifluoromethoxyphenyl)-1H-pyrazol-4-yl]-3,5,6,7-tetrahydro-6,6-dimethyl-1-phenyl-3-trifluoromethyl-1H-indole-2,4-dione] | 
9 |  | 3.1 | COc1ccc(-n2[nH]c(C)c(C3(C(F)(F)F)C(=O)N(c4ccccc4)C4=C3C(=O)CC(C)(C)C4)c2=O)cc1 (centres unmarked) [Production Example 26, 3-[2,5-dihydro-1-(4-methoxyphenyl)-3-methyl-5-oxo-1H-pyrazol-4-yl]-3,5,6,7-tetrahydro-6,6-dimethyl-1-phenyl-3-trifluoromethyl-1H-indole-2,4-dione] | 
